Measurements: patent US11911394B2, “Compound and method for the prevention of transmission of influenza virus” (Hoffmann-La Roche Inc., priority 2019, dated 2024)
Where two headings read alike, the source gives them in different places.

Key:
[1] = system: Influenza A/Perth/265/2009 H1N1pdm09 virus; assay: Example 2 ferret contact transmission study, quantitative real-time RT-PCR of nasal wash; assay type: in vivo; settings: for donor viral copy numbers (qRT-PCR) compared to placebo: 3 DPI (p≤0.05), nasal wash; for recipients with influenza virus RNA detected (qRT-PCR) / ferrets with viral RNA detected (qRT-PCR), FIG. 13B recipient results: positive/total; for ferrets with viral RNA detected (qRT-PCR), FIG. 13B recipient results: Example 2 Experiment 3, printed as donors
Experimental: (§1) The active form baloxavir acid (S-033447, hereafter BXA) and pro-drug oseltamivir phosphate (hereafter OST) was kindly provided by Shionogi & Co., Ltd., Japan. The vehicle for BXA delivery was methyl cellulose (Sigma-Aldrich, Australia) in 0.5 w/v % aqueous solution prepared with sterile water (hereafter MC solution). BXA in suspension with MC solution (1 mg/mL) was prepared using an agate mortar and pestle, and was delivered to reversibly anaesthetised animals in a single treatment consisting of 4 subcutaneous injections at 4 locations on the dorsal region (total dose 4 mg/kg per animal). Animals in the placebo group were dosed identically using MC solution (1 mL/kg) alone. OST doses (10 mg/mL) were prepared in sugar solution (1 g/mL) and delivered bis in die (8 hr interval) to non-sedated ferrets by the oral route (total dose 10 mg/kg/day).
Viral RNA was extracted from 200 μL nasal wash samples using the NucleoMag VET isolation kit (Macherey Nagel) on the KingFisher Flex (ThermoFisher Scientific) platform according to manufacturer's instructions. Influenza virus M gene copy number in 4 μL RNA was determined by quantitative real-time RT-PCR performed using the SensiFAST Probe Lo-ROX One-Step qRT-PCR System Kit (Bioline) on the ABI 7500 Real Time PCR System (Applied Biosystems) under the following cycling conditions: 45° C. for 10 min, 1 cycle; 95° C. for 2 min, 1 cycle; 95° C. for 5 sec then 60° C. for 30 sec, 40 cycles. Sample RNA was quantitated using influenza A RNA standards of known copy number, kindly provided by Seqirus, Australia. Universal influenza A real-time primer/probe sets were kindly provided by CDC Influenza Branch (Atlanta, USA) (sequences available upon request). Results were analysed by 7500 Fast System SDS software v1.5.1.
Data analysis was performed using Graphpad Prism (GraphPad Software, v5.01). Nasal wash viral titres of all ferrets on each day post inoculation/exposure were compared by a matched two-way analysis of variance (ANOVA) followed by Tukey's multiple comparisons test. Quantitative real time RT-PCR was performed on influenza control RNA of known copy number to generate a standard curve (linear regression of influenza cycle threshold (Ct) values vs. copy number). Viral copy numbers present in nasal wash RNA samples on the same assay were calculated using the formula of the standard curve. Influenza A copy numbers for each group of ferrets were compared by a matched two-way ANOVA followed by Tukey's multiple comparisons test. p<0.05 was considered statistically significant.
This study consisted of three separate Experiments using different schedules of antiviral treatment and timing of naïve animal co-housing. In each experiment, twenty-four ferrets were randomly assigned to three groups (n=8): BXA, OST and placebo. Within each group, n=4 ferrets were designated as treated donor ferrets, and n=4 as naïve recipients. On 0 DPI (days post inoculation) for each experiment, all donor ferrets (each individually housed) were intranasally inoculated with influenza A/Perth/265/2009 at […] tissue culture infective doses (TCID50) in 40 μL of phosphate-buffered saline (PBS). As described above, donors in the BXA and placebo groups received a single antiviral treatment, whereas OST-group donors were treated daily until endpoint (excluding cull day). At the designated time point, naïve recipient ferrets were co-housed with treated donor ferrets (1:1 per cage) for a contact exposure period of 48 hr.
Experiment 1: Antiviral treatment for all donors commenced at 1 DPI, and naïve recipient ferrets were co-housed immediately following treatment. Body weight and temperature were monitored daily from all animals. Daily nasal wash samples were collected 1 mL of PBS from 1 DPI to 3 DPI for donor animals, and 1 day post exposure (DPE) to 10 DPE for recipient animals. Donors were sacrificed at 3 DPI (2 DPE), and blood was collected from BXA- and placebo-treated ferrets by cardiac puncture. […]

[2] = Example 2 antiviral pharmacokinetic analysis, endpoint donor plasma; assay type: in vivo; settings: ferret, sc, 4 mg/kg, 4 mg/kg s.c., read-out: baloxavir in plasma ±SD
Experimental: as §1
Endpoint BXA and placebo-treated donor blood samples were collected in heparinised tubes, and plasma isolated by centrifugation. Plasma samples were stored at −80° C. until transport to analytical facilities at Shionogi & Co., Ltd.
Experiment 1: Antiviral treatment for all donors commenced at 1 DPI, and naïve recipient ferrets were co-housed immediately following treatment. Body weight and temperature were monitored daily from all animals. Daily nasal wash samples were collected 1 mL of PBS from 1 DPI to 3 DPI for donor animals, and 1 day post exposure (DPE) to 10 DPE for recipient animals. Donors were sacrificed at 3 DPI (2 DPE), and blood was collected from BXA- and placebo-treated ferrets by cardiac puncture. Recipients were sacrificed at 10 DPE.
Experiment 2: Antiviral treatment commenced at 1 DPI, and recipient co-housing was delayed until 24 hr following treatment (2 DPI). Body weight and temperature were monitored daily from all animals. […]
Experiment 3: Antiviral treatment commenced at 2 DPI, and recipients were co-housed immediately afterwards. Body weight and temperature were monitored daily from all animals. […]

SMILES | donor viral copy numbers (qRT-PCR) compared to placebo ([1]; Example 2 Experiment 1) | recipients with influenza virus RNA detected (qRT-PCR) ([1]; Example 2 Experiment 1) | recipients with influenza virus RNA detected (qRT-PCR) ([1]; Example 2 Experiment 2) | ferrets with viral RNA detected (qRT-PCR), FIG. 13B recipient results [1] | donor mean viral copy number (qRT-PCR) ([1]; Example 2 Experiment 2, 3 DPI, no differences at any other days) | concentration at 48 h ([2]; Example 2 Experiment 1, 48 hours post treatment) | concentration at 72 h ([2]; Example 2 Experiment 2, 72 hr post treatment) | concentration at 72 h ([2]; Example 2 Experiment 3, 72 hr post treatment (so in the source))
CCOC(=O)C1=C[C@@H](OC(CC)CC)[C@H](NC(C)=O)[C@@H](N)C1 [oseltamivir, oseltamivir phosphate, reference compound] | significantly reduced | 4/4 | 4/4 | 4/4 |  |  |  | 
O=C1c2c(O)c(=O)ccn2N([C@@H]2c3ccccc3SCc3c2ccc(F)c3F)[C@@H]2COCCN12 [baloxavir, baloxavir acid] | significantly reduced | 2/4 | 1/4 | 3/4 | reduced | 10.2 ± 2.8 ng/mL | 12.5 ± 2.4 ng/mL | 24.5 ± 4.03 ng/mL
